Experimental data: the NIST ThermoML archive (doi:10.1021/je049546h)

How the values were obtained:
[1] = Liquid
[2] = xn = mol fraction of the nth substance listed; conditions: for mass density: Other PVT measurement; for Critical density: closed cell phase equilibration

O=C=O [carbon dioxide]
[1]
Conditions	Critical pressure [kPa]	Critical temperature [K]
Direct measurement	7360	–
Visual observation in a stirred cell	–	304.2

CCc1ccccc1 [ethylbenzene] + O=C=O
mass density [kg/m3], [2], Liquid
Conditions	303.2 K	308.2 K	313.2 K	318.2 K	323.2 K	328.2 K	333.2 K
x1 = 0.0211	709	665	590	–	–	–	–
x1 = 0.0384	741	715	673	633	583	–	–
x1 = 0.0512	762	735	702	671	630	603	–
x1 = 0.0637	782	761	731	703	675	642	607
x1 = 0.0751	790	769	748	722	697	672	646
x1 = 0.0998	818	799	779	760	742	723	706

[2], Liquid
Conditions	Critical density [kg/m3]
x1 = 0.0225	520
x1 = 0.0363	545
x1 = 0.0488	580

C=Cc1ccccc1 [styrene] + O=C=O
mass density [kg/m3], [2]
Conditions	x1 = 0.0225	x1 = 0.0363	x1 = 0.0488	x1 = 0.0742	x1 = 0.101
303.2 K, Liquid	721	755	774	805	831
308.2 K, Liquid	675	721	747	781	813
313.2 K, Liquid	615	683	711	758	794
318.2 K, Liquid	529	635	682	734	774
321.2 K, Gas	500	–	–	–	–
323.2 K, Liquid	–	582	645	711	755
328.2 K, Liquid	–	–	608	685	733
330.2 K, Gas	–	527	–	–	–
333.2 K, Gas	–	–	570	–	–
333.2 K, Liquid	–	–	–	663	713

[2], Liquid
Conditions	Critical density [kg/m3]
x1 = 0.0211	504
x1 = 0.0384	546
x1 = 0.0512	560
x1 = 0.0637	590
